This is an account of results in patent US5395836A, “8-tricycloalkyl xanthine derivatives” (Kyowa Hakko Kogyo Co., Ltd., priority 1993, dated 1995).

The structures appear in SMILES notation.

The target of one assay is T1, adenosine A1 receptor (Rattus norvegicus, UniProt P25099).
T1 construct: from tissue; host or cells: rat corpus striatum, washed membrane suspension
T1 sequence (P25099 1-326): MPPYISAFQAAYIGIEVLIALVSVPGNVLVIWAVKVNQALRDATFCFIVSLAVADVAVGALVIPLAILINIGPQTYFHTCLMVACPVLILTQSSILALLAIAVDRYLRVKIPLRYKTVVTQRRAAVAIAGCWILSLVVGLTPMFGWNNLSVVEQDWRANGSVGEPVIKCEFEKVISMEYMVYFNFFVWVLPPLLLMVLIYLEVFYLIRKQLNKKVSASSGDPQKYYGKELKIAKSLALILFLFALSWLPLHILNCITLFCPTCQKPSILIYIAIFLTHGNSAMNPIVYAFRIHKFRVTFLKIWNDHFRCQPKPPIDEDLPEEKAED
The experiment in a line: Adenosine Receptor Antagonizing Activity (Adenosine A1 Receptor Binding Test). The note with it: rat corpus striatum; 3H-CHA 1.1 nM; 25° C., 90 min; Cheng-Prusoff. How it is done: The test was conducted according to the method of Bruns et al. [Proc. Natl. Acad. Sci. U.S.A., 77., 5547 (1980)] with slight modification.
Corpus striatum of a rat was suspended in ice-cooled 50 mM Tris hydroxymethyl aminomethane hydrochloride (Tris HCl) buffer (pH 7.7) by using Polytron homogenizer (manufactured by Kinematicas Co.). The suspension was centrifuged (50,000×g, 10 minutes), and the precipitate was suspended again in the same amount of 50 mM Tris HCl buffer. The suspension was centrifuged under the same conditions, and the final precipitate was suspended once again in 50 mM Tris HCl buffer to give a tissue concentration of 100 mg (wet weight)/ml. The tissue suspension was allowed to stand in the presence of 0.02 unit/mg tissue of adenosine deaminase (manufacture by Sigma Co.) at 37° C. for 30 minutes. The tissue suspension was centrifuged (50,000×g, 10 minutes) and to the obtained precipitates was added 50 mM Tris HCl buffer to give a tissue concentration of 10 mg (wet weight)/ml.
To 1 ml of the tissue suspension thus prepared, were added 50 μl of cyclohexyladenosine labeled with tritium (^3 H-CHA: 27 Ci/mmol, manufactured by New England Nuclear) (final concentration: 1.1 nM), and 50 μl of a test compound. The resulting mixture was allowed to stand at 25° C. for 90 minutes and then rapidly filtered by suction through a glass fiber filter (GF/C, manufactured by Whatman Co.). The filter was immediately washed three times with 5 ml each of ice-cooled 50 mM Tris HCl buffer, and transferred to a vial, and scintillator (EX-H by Wako Pure Chemical Industries, Ltd.) was added thereto. The radioactivity on the filter was determined with a liquid scintillation counter (manufactured by Packard Instrument Co.).
The inhibition rate (Ki value) of the test compound against the binding of A1 receptors (^3 H-CHA binding) was calculated by the equation of Cheng-Prusoff. [formula]

Another assay is described as follows: Diuretic Effect. In kind it is in vivo, rat (Wistar). The note with it: po, 4 hours; for Increase in amount of K+ excreted Δ(%) / Increase in amount of Na+ excreted Δ(%) / Increase in amount of urine Δ(%): control 0; for Na+/K+: control 1.00. How it is done: The experiment was performed by using Wistar rats (male; 150 to 300 g). The rats were starved for 18 hours prior to the administration of a test compound (n=4 to 5). After test compounds were dissolved in 0.4% methanol, 1% dimethylsulfoxide and 0.01N sodium hydroxide/physiological saline, and administered intravenously, the physiological saline (25 ml/kg) was orally administered. Alternatively, test compounds dissolved in the physiological saline (25 ml/kg) was orally administered to the rats. Urine was collected from the rats during 4 hours after the oral administration, and urine volume was measured by a graduated measuring cylinder, and the electrolytes in the urine (Na^+ and K^+) were determined by flame photometer (775 A manufactured by Hitachi, Ltd.).

Assay [1] is described as follows: Renal-protecting Effect (Glycerol-Induced Renal Failure Model). Particulars: for Amount of creatinine in blood serum / Amount of uria nitrogen in blood serum: ip, 24 h after glycerol. The class given is in vivo, rat (Wistar). As to the method:
A renal failure is a state where the renal function is lowered and the homeostasis of a body fluid can be no longer maintained. It is known that an acute renal failure characteristic of uriniferous tubule disorder is caused by subcutaneous or intramuscular injection of glycerol to rats [Can. J. Physiol.
Male Wistar rats were kept deprived of water for 18 hours, and served for the test. A test compound was intraperitoneally administered to the rats (dosage: 0.1 ml/100 g). After 30 minutes, the rats were anesthetized with ether and 50% glycerol was subcutaneously administered (dosage: 0.8 ml/100 g) to the rats, pinching the dorsal skin. Twenty four hours after the administration of glycerol, the rats were anesthetized with ether and 5 ml of blood was collected from the abdominal aorta. The collected blood was allowed to stand for 30 minutes or longer and then centrifuged at 3,000 rpm for 10 minutes, and the amounts of the serum creatinine and the serum urine-nitrogen (UN) were determined by auto analyzer (Olympus AU510) [creatinine test (Jaffe method), UN test (enzyme method); both tests were used in Olympus AU500/550 exclusive reagent […].

Where [2] appears, read: 0.03 mg/kg, control 4.55 ± 0.24.
[3] abbreviates: 0.03 mg/kg, control 137.2 ± 5.0.
Where [4] appears, read: 0.01 mg/kg, control 3.90 ± 0.24 (compounds 6, 7), 4.35 ± 0.23 (compound 3).
[5] abbreviates: 0.01 mg/kg, control 124.9 ± 7.5 (compounds 6, 7), 139.7 ± 10.2 (compound 3).

Usually Ki stands for the dissociation constant of the complex between target and ligand, obtained from inhibition or displacement. High values mean weaker binding, low ones tighter binding. On adenosine A1 receptor, `CCCn1c(=O)c2[nH]c(C34CC5CC(C3)C(=O)C4C5)nc2n(CCC)c1=O` (stereo not shown) [Compound 2, 8-(6-Oxo-3-tricyclo[3.3.1.0^3,7]nonyl)-1,3-dipropylxanthine] gave an inhibition constant (Ki) of 0.59 nM. Further, in “Diuretic Effect” (0.1 mg/kg), the “Increase in amount of K+ excreted Δ(%)” value turned out to be 32%, the “Increase in amount of Na+ excreted Δ(%)” value is reported as 177%, the “Increase in amount of urine Δ(%)” value is recorded as 211% and the “Na+/K+” value was determined as 2.10. Further, in “Diuretic Effect” (1.6 mg/kg), the “Increase in amount of K+ excreted Δ(%)” value was 8%, the “Increase in amount of Na+ excreted Δ(%)” value is recorded as 188%, the “Increase in amount of urine Δ(%)” value was 241% and the “Na+/K+” value is reported as 2.67. Also, the “Amount of creatinine in blood serum” value in assay [1] (setting [2]) came to 2.51 ± 0.24 mg/dL. Further, the “Amount of uria nitrogen in blood serum” value in assay [1] (setting [3]) worked out at 85.0 ± 8.7 mg/dL.
For `CCCn1c(=O)c2[nH]c(C34CC5CC(CC3C5)C4)nc2n(CCCO)c1=O` [Compound 6, 3-(3-Hydroxypropyl)-8-(3-tricyclo[3.3.1.0^3,7]nonyl)-1-propylxanthine], affinity on adenosine A1 receptor was put at a Ki of 0.96 nM. Besides, in the assay “Diuretic Effect” (0.025 mg/kg), the “Increase in amount of K+ excreted Δ(%)” value was 5.1%, the “Increase in amount of Na+ excreted Δ(%)” value turned out to be 111%, the “Increase in amount of urine Δ(%)” value was found to be 134% and the “Na+/K+” value came out at 2.00. Further, in the assay “Diuretic Effect” (0.1 mg/kg), the “Increase in amount of K+ excreted Δ(%)” value came to 24%, the “Increase in amount of Na+ excreted Δ(%)” value came out at 276%, the “Increase in amount of urine Δ(%)” value amounted to 396% and the “Na+/K+” value worked out at 3.03. For the same molecule, the “Amount of creatinine in blood serum” value in assay [1] (setting [4]) was 2.23 ± 0.15 mg/dL. In addition, the “Amount of uria nitrogen in blood serum” value in assay [1] (setting [5]) is 65.4 ± 5.6 mg/dL.
In turn, `CCCn1c(=O)c2[nH]c(C34CC5CC(C3)C(O)C4C5)nc2n(CCC)c1=O` (stereo not drawn) [Compound 5, 8-(Trans-6-hydroxy-3-tricyclo[3.3.1.0^3,7]nonyl)-1,3-dipropylxanthine] showed a Ki at adenosine A1 receptor of 0.24 nM. Further, in assay [1] (0.1 mg/kg, control 4.55 ± 0.24 (compound 5), 4.35 ± 0.23 (compound 3)), the “Amount of creatinine in blood serum” value is 2.34 ± 0.24 mg/dL. Moreover, in assay [1] (0.1 mg/kg, control 137.2 ± 5.0 (compound 5), 139.7 ± 10.2 (compound 3)), the “Amount of uria nitrogen in blood serum” value was determined as 74.4 ± 7.7 mg/dL.
At adenosine A1 receptor, `CCCn1c(=O)c2[nH]c(C34CC5CC3CC(C4)C5=O)nc2n(CCC)c1=O` [Compound 1, 8-(9-Oxo-3-tricyclo[3.3.1.0^3,7]nonyl)-1,3-dipropylxanthine] showed a Ki of 0.37 nM. Also, in the assay “Diuretic Effect” (0.01 mg/kg), the “Increase in amount of K+ excreted Δ(%)” value was found to be 37%, the “Increase in amount of Na+ excreted Δ(%)” value is 144%, the “Increase in amount of urine Δ(%)” value amounted to 149% and the “Na+/K+” value worked out at 1.78. Also, in the assay “Diuretic Effect” (1.6 mg/kg), the “Increase in amount of K+ excreted Δ(%)” value was determined as 36%, the “Increase in amount of Na+ excreted Δ(%)” value stood at 193%, the “Increase in amount of urine Δ(%)” value was found to be 258% and the “Na+/K+” value came out at 2.15. Besides, the “Amount of creatinine in blood serum” value in assay [1] (setting [2]) turned out to be 2.51 ± 0.41 mg/dL. The “Amount of uria nitrogen in blood serum” value in assay [1] (setting [3]) stood at 81.4 ± 15.9 mg/dL.
Molecule `CCCn1c(=O)c2[nH]c(C34C[C@H]5CC3C[C@@H](C4)[C@H]5O)nc2n(CCC)c1=O` (relative stereo) [Compound 4, 8-(cis-9-hydroxy-3tricyclo[3.3.1.0^3,7]nonyl)-1,3-dipropylxanthine] gave a Ki on adenosine A1 receptor of 0.31 nM. Also, in “Diuretic Effect” (0.01 mg/kg), the “Increase in amount of K+ excreted Δ(%)” value came out at 43%, the “Increase in amount of Na+ excreted Δ(%)” value is reported as 167%, the “Increase in amount of urine Δ(%)” value was 200% and the “Na+/K+” value turned out to be 1.86. In addition, in “Diuretic Effect” (1.6 mg/kg), the “Increase in amount of K+ excreted Δ(%)” value amounted to 35%, the “Increase in amount of Na+ excreted Δ(%)” value worked out at 180%, the “Increase in amount of urine Δ(%)” value came to 232% and the “Na+/K+” value is 2.07. Further, in assay [1] (setting [2]), the “Amount of creatinine in blood serum” value was found to be 2.32 ± 0.48 mg/dL. The “Amount of uria nitrogen in blood serum” value in assay [1] (setting [3]) turned out to be 75.6 ± 13.9 mg/dL.
Turning to `Cn1c(=O)c2[nH]cnc2n(C)c1=O` [aminophylline, reference compound], the “effect of suppressing the increase” value in assay [1] (i.p., 10 mg/kg) is “weak effect of suppressing the increase”.
With `CCCn1c(=O)c2[nH]c(C34CC5CC(CC3C5)C4)nc2n(CC(C)O)c1=O` (stereo not shown) [Compound 7, 3-(2-hydroxypropyl) -8-(3tricyclo[3.3.1.0^3,7]nonyl)-1-propylxanthine], the affinity on adenosine A1 receptor corresponds to a Ki of 6.1 nM. In the assay “Diuretic Effect” (0.01 mg/kg), the “Increase in amount of K+ excreted Δ(%)” value is 33%, the “Increase in amount of Na+ excreted Δ(%)” value came out at 97%, the “Increase in amount of urine Δ(%)” value is reported as 140% and the “Na+/K+” value stood at 1.48. For the same molecule, in “Diuretic Effect” (0.1 mg/kg), the “Increase in amount of K+ excreted Δ(%)” value was determined as 23%, the “Increase in amount of Na+ excreted Δ(%)” value stood at 138%, the “Increase in amount of urine Δ(%)” value stood at 200% and the “Na+/K+” value worked out at 1.93. Moreover, in assay [1] (setting [4]), the “Amount of creatinine in blood serum” value was found to be 2.28 ± 0.22 mg/dL. The “Amount of uria nitrogen in blood serum” value in assay [1] (setting [5]) worked out at 70.0 ± 9.8 mg/dL.
`CCCn1c(=O)c2[nH]c(C34CC5CC(CC(O)(C5)C3)C4)nc2n(CCC)c1=O` [Compound 8, 8-(3-Hydroxy-1-tricyclo[3.3.1.1^3,7]decyl)-1,3-dipropylxanthine]: on adenosine A1 receptor, affinity was put at a Ki of 5.1 nM.
For the molecule `NS(=O)(=O)c1cc(C(=O)O)c(NCc2ccco2)cc1Cl` [furosemide, reference compound], the “effect on serum creatinine” value in assay [1] (i.p., 10 mg/kg) was “tendency to increase the serum creatinine”.
